Data: ChEMBL document CHEMBL4385643, “Design of a brain-penetrant CDK4/6 inhibitor for glioblastoma” (Bioorg Med Chem Lett, 2019)

Assays:
[1] = molecular target: Mitogen-activated protein kinase kinase kinase 2 (Homo sapiens) (UniProt Q9Y2U5); test: Inhibition of tracer 236 binding to recombinant full length human GST-tagged MEKK2 expressed in baculovirus expression system at 0.1 uM measured after 60 mins by Lanthascreen assay relative to control
[2] = molecular target: Tyrosine-protein kinase JAK3 (Homo sapiens) (UniProt P52333); test: Inhibition of recombinant human GST-tagged JAK3 catalytic domain (781 to 1124 residues) expressed in baculovirus expression system at 0.1 uM using tyrosine-6 peptide as substrate incubated for 60 mins by Z'-LYTE assay relative to control
Sequence of Tyrosine-protein kinase JAK3 (Homo sapiens) (P52333 whole entry, the tested form may be a part): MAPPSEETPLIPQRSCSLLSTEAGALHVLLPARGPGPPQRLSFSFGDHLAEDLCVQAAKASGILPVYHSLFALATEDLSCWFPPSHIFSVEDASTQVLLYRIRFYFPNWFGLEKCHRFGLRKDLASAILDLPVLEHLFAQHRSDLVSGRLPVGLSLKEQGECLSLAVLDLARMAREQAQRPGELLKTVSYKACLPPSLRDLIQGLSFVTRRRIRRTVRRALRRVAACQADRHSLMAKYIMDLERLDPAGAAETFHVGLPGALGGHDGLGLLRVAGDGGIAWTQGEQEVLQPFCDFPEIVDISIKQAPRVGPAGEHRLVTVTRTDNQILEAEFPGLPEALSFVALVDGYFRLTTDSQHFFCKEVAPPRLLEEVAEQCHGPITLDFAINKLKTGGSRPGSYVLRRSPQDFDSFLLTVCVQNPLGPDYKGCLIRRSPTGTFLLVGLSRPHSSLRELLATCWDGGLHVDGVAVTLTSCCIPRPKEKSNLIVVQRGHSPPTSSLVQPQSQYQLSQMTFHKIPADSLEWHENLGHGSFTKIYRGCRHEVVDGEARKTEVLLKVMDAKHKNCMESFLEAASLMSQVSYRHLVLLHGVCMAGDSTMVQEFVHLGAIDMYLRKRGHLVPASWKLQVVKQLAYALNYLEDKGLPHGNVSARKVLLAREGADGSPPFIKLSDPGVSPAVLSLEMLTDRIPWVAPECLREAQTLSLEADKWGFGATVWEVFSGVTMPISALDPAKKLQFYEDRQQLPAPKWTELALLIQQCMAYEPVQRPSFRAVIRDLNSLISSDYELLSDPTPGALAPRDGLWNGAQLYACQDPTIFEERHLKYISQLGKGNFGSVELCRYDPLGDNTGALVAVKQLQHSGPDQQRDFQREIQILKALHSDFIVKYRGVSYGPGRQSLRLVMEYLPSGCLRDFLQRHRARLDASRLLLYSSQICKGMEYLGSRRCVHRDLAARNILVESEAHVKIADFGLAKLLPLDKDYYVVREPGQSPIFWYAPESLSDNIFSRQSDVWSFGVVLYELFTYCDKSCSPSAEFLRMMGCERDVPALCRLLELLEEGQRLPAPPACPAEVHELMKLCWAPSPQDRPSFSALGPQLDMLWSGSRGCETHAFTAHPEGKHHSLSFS

[3] = molecular target: Tyrosine-protein kinase Fgr (Homo sapiens) (UniProt P09769); test: Inhibition of recombinant full length human His-tagged FGR expressed in baculovirus expression system at 0.1 uM using tyrosine-2 peptide as substrate incubated for 60 mins by Z'-LYTE assay relative to control
[4] = molecular target: Receptor-type tyrosine-protein kinase FLT3 (Homo sapiens) (UniProt P36888); test: Inhibition of recombinant human His-tagged FLT3 catalytic domain (564 to 958 residues) expressed in baculovirus expression system at 0.1 uM using tyrosine-2 peptide as substrate incubated for 60 mins by Z'-LYTE assay relative to control
[5] = molecular target: Cyclin-dependent kinase 5/CDK5 activator 1 (Homo sapiens) (UniProt Q00535+Q15078); test: Inhibition of recombinant full length human GST/His-tagged CDK5/p25 expressed in baculovirus expression system at 0.1 uM using serine/threonine-12 peptide as substrate incubated for 60 mins by Z'-LYTE assay relative to control
[6] = molecular target: Tyrosine-protein kinase JAK1 (Homo sapiens) (UniProt P23458); test: Inhibition of recombinant human GST-tagged JAK1 catalytic domain (866 to 1154 residues) expressed in baculovirus expression system at 0.1 uM using tyrosine-6 peptide as substrate incubated for 60 mins by Z'-LYTE assay relative to control
Sequence of Tyrosine-protein kinase JAK1 (Homo sapiens) (P23458 whole entry, the tested form may be a part): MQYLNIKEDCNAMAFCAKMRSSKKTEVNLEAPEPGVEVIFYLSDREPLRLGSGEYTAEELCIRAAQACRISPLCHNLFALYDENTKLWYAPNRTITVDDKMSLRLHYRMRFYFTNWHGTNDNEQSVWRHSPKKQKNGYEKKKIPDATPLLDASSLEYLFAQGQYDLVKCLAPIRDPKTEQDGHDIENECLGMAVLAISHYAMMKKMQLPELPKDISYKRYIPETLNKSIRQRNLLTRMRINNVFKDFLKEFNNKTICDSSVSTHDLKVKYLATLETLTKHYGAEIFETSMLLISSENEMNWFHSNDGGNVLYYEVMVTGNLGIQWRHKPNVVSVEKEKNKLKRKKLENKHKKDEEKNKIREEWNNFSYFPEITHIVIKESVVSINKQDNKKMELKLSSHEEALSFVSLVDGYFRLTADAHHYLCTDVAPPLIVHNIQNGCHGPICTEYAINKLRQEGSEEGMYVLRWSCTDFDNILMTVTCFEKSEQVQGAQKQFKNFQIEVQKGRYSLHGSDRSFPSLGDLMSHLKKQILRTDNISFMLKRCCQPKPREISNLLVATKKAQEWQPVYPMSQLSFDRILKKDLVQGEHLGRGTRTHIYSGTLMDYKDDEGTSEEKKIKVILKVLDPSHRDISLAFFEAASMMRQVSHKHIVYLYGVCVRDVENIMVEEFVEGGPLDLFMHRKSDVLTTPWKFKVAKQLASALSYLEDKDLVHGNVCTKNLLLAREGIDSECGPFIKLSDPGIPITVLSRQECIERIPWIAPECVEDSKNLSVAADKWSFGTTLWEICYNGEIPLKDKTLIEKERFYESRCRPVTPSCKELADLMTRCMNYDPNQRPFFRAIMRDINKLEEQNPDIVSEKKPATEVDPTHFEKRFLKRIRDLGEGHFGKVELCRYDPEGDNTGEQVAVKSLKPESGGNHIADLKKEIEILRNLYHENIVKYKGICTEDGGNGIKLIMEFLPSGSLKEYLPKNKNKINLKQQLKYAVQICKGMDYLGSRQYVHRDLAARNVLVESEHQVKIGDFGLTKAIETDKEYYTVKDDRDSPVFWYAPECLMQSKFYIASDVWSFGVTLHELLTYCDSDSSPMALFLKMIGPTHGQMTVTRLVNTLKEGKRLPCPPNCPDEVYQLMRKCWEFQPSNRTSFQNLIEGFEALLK

[7] = molecular target: Dual specificity protein kinase TTK (Homo sapiens) (UniProt P33981); test: Inhibition of tracer 236 binding to recombinant full length human GST-tagged TTK expressed in baculovirus expression system at 0.1 uM measured after 60 mins by Lanthascreen assay
[8] = molecular target: Homeodomain-interacting protein kinase 4 (Homo sapiens) (UniProt Q8NE63); test: Inhibition of recombinant full length human GST-tagged HIPK4 expressed in baculovirus expression system at 0.1 uM using serine/threonine-18 peptide as substrate incubated for 60 mins by Z'-LYTE assay relative to control
[9] = molecular target: Serine/threonine-protein kinase pim-1 (Homo sapiens) (UniProt P11309); test: Inhibition of recombinant full length human His-tagged PIM1 expressed in baculovirus expression system at 0.1 uM using serine/threonine-7 peptide as substrate incubated for 60 mins by Z'-LYTE assay relative to control
[10] = molecular target: Receptor-interacting serine/threonine-protein kinase 2 (Homo sapiens) (UniProt O43353); test: Inhibition of tracer 178 binding to recombinant human His-tagged RIPK2 catalytic domain (1 to 299 residues) expressed in baculovirus expression system at 0.1 uM measured after 60 mins by Lanthascreen assay relative to control
[11] = molecular target: CDK17/Cyclin-Y (Homo sapiens) (UniProt Q00537+Q8ND76); test: Inhibition of recombinant full length human GST-tagged CDK17/Cyclin Y (2 to end amino acids) expressed in insect expression system at 0.1 uM using serine/threonine-12 peptide as substrate incubated for 60 mins by Z'-LYTE assay relative to control
[12] = molecular target: Serine/threonine-protein kinase mTOR (Homo sapiens) (UniProt P42345); test: Inhibition of recombinant human GST-tagged mTOR catalytic domain (1360 to 2549 residues) expressed in baculovirus expression system at 0.1 uM using serine/threonine-11 peptide as substrate incubated for 60 mins by Z'-LYTE assay relative to control
[13] = molecular target: Receptor tyrosine-protein kinase erbB-2 (Homo sapiens) (UniProt P04626); test: Inhibition of recombinant human His-tagged ERBB2 catalytic domain (676 to 1255 residues) expressed in baculovirus expression system at 0.1 uM using tyrosine-6 peptide as substrate incubated for 60 mins by Z'-LYTE assay relative to control
Sequence of Receptor tyrosine-protein kinase erbB-2 (Homo sapiens) (P04626 whole entry, the tested form may be a part): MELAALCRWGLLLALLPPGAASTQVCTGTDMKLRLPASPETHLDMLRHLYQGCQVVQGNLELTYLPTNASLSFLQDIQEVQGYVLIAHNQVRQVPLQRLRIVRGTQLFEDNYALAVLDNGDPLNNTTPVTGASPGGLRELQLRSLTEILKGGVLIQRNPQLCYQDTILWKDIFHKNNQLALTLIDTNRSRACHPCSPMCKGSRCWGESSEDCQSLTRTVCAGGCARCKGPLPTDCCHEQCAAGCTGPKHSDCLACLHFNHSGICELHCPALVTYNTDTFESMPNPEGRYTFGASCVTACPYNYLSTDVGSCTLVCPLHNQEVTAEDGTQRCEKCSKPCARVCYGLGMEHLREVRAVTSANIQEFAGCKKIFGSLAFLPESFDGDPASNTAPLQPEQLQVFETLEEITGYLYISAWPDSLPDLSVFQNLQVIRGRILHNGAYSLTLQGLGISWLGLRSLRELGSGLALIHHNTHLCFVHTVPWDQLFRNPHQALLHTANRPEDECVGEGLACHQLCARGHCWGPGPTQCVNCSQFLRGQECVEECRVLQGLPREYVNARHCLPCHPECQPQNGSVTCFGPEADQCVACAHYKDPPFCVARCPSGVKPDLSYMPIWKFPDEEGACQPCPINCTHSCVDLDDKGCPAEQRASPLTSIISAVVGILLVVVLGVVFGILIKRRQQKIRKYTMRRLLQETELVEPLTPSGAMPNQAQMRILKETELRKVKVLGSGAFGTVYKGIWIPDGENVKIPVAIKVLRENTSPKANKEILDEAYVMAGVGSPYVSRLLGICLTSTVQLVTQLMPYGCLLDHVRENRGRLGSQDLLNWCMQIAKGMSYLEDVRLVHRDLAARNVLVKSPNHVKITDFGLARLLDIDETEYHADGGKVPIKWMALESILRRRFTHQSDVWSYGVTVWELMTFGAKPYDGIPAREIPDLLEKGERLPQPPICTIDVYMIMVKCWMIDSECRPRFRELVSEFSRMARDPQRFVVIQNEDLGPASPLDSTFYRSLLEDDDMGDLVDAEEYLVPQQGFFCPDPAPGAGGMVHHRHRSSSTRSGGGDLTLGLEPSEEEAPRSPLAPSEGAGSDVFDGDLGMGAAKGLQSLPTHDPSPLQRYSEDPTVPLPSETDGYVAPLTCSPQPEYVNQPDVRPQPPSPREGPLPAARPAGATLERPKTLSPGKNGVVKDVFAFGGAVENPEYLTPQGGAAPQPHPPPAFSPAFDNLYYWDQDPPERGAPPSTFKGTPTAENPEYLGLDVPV

[14] = molecular target: Mitogen-activated protein kinase 13 (Homo sapiens) (UniProt O15264); test: Inhibition of recombinant full length human His-tagged p38delta expressed in baculovirus expression system at 0.1 uM using serine/threonine-3 peptide as substrate incubated for 60 mins by Z'-LYTE assay relative to control
[15] = molecular target: Myotonin-protein kinase (Homo sapiens) (UniProt Q09013); test: Inhibition of tracer 236 binding to recombinant full length human GST-tagged DMPK expressed in baculovirus expression system at 0.1 uM measured after 60 mins by Lanthascreen assay relative to control
[16] = molecular target: Serine/threonine-protein kinase DCLK2 (Homo sapiens) (UniProt Q8N568); test: Inhibition of recombinant full length human GST-tagged DCAMKL2 expressed in baculovirus expression system at 0.1 uM using serine/threonine-17 peptide as substrate incubated for 60 mins by Z'-LYTE assay relative to control
[17] = molecular target: TGF-beta receptor type-1 (Homo sapiens) (UniProt P36897); test: Inhibition of tracer 178 binding to recombinant human GST-tagged TGFBR1 catalytic domain (200 to 503 residues) expressed in baculovirus expression system at 0.1 uM measured after 60 mins by Lanthascreen assay
[18] = molecular target: Protein-tyrosine kinase 6 (Homo sapiens) (UniProt Q13882); test: Inhibition of recombinant full length human His-tagged BRK expressed in baculovirus expression system at 0.1 uM using tyrosine-1 peptide as substrate incubated for 60 mins by Z'-LYTE assay relative to control
Sequence of Protein-tyrosine kinase 6 (Homo sapiens) (Q13882 whole entry, looked up, the tested form may be a part): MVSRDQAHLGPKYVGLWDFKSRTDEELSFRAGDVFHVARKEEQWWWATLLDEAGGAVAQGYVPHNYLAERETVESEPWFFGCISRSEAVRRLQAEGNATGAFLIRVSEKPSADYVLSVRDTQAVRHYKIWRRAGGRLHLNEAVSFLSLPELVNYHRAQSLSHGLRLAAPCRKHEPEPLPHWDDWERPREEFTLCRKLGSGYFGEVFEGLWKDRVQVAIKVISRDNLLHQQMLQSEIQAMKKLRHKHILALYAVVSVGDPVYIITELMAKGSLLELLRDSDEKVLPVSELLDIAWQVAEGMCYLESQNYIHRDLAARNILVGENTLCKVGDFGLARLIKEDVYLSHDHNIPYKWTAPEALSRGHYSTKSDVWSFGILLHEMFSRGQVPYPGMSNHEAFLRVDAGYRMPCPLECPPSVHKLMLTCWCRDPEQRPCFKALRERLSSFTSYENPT

[19] = molecular target: Muscle, skeletal receptor tyrosine-protein kinase (Homo sapiens) (UniProt O15146); test: Inhibition of recombinant human GST-tagged MUSK (519 to 869 residues) expressed in baculovirus expression system at 0.1 uM using tyrosine-4 peptide as substrate incubated for 60 mins by Z'-LYTE assay relative to control
[20] = molecular target: Ephrin type-A receptor 7 (Homo sapiens) (UniProt Q15375); test: Inhibition of tracer 236 binding to recombinant human His-tagged EPHA7 (579 to 998 residues) expressed in baculovirus expression system at 0.1 uM measured after 60 mins by Lanthascreen assay relative to control
Sequence of Ephrin type-A receptor 7 (Homo sapiens) (Q15375 28-998 limits assumed): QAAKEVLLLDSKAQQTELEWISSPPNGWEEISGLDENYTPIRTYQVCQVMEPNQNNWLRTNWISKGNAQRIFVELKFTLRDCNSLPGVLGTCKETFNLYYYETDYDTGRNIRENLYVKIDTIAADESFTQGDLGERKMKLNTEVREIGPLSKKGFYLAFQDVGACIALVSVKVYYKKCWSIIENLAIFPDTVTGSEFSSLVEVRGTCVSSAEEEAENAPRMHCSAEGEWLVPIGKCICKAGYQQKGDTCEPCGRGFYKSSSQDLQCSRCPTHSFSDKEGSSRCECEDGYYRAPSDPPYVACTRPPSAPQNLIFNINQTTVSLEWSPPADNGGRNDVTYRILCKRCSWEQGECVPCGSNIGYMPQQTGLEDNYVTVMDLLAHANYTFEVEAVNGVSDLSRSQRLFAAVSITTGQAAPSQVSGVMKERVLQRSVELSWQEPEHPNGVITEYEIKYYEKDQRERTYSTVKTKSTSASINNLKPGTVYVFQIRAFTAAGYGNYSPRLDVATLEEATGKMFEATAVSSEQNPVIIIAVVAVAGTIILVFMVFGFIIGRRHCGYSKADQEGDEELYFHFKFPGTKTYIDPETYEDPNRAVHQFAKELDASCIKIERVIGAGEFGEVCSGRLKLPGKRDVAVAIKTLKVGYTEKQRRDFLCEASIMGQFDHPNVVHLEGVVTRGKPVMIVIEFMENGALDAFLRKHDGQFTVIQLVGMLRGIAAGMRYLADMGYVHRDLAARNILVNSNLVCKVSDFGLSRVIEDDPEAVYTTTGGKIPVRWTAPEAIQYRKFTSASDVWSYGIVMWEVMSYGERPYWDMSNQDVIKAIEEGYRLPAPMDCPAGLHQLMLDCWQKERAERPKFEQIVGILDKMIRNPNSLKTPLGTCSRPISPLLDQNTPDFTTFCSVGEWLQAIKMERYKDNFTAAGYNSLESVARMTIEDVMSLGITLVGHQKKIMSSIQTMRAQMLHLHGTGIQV

[21] = molecular target: Calcium/calmodulin-dependent protein kinase kinase 1 (Homo sapiens) (UniProt Q8N5S9); test: Inhibition of tracer 236 binding to recombinant human GST-tagged CAMKK1 expressed in Escherichia coli expression system at 0.1 uM measured after 60 mins by Lanthascreen assay relative to control
[22] = molecular target: Tyrosine-protein kinase Blk (Homo sapiens) (UniProt P51451); test: Inhibition of recombinant full length human His-tagged BLK expressed in baculovirus expression system at 0.1 uM using tyrosine-1 peptide as substrate incubated for 60 mins by Z'-LYTE assay relative to control
[23] = molecular target: Proto-oncogene tyrosine-protein kinase ROS (Homo sapiens) (UniProt P08922); test: Inhibition of recombinant human GST-tagged ROS1 catalytic domain (1883 to 2347 residues) expressed in baculovirus expression system at 0.1 uM using tyrosine-2 peptide as substrate incubated for 60 mins by Z'-LYTE assay relative to control

| SMILES | inhibition [1] [%] | inhibition [2] [%] | inhibition [3] [%] | inhibition [4] [%] | inhibition [5] [%] | inhibition [6] [%] | inhibition [7] [%] | inhibition [8] [%] | inhibition [9] [%] | inhibition [10] [%] | inhibition [11] [%] | inhibition [12] [%] | inhibition [13] [%] | inhibition [14] [%] | inhibition [15] [%] | inhibition [16] [%] | inhibition [17] [%] | inhibition [18] [%] | inhibition [19] [%] | inhibition [20] [%] | other results |
| --- | --- | --- | --- | --- | --- | --- | --- | --- | --- | --- | --- | --- | --- | --- | --- | --- | --- | --- | --- | --- | --- |
| CCN1CC2(C1)CN(c1ccc(Nc3ncc(F)c(-c4cnn5c4[C@H](C)CCCC5)n3)nc1)C2 | 10 | 61.5 | 7 | 59 | 72 | 5 | 41 | 8 | 11.5 | 2 | 61.5 | 2 | 0 | 3.5 | 46 | 20.5 | 16 | 6.5 | 10.5 | 5.5 | inhibition [21]: 12%; inhibition [22]: 3.5%; inhibition [23]: 57.5% |
| CCN1CCN(Cc2ccc(Nc3ncc(F)c(-c4cc(F)c5nc(C)n(C(C)C)c5c4)n3)nc2)CC1 [ABEMACICLIB] | 2.2 | 30 | 8.5 | 35.5 | 60.8 | 2 | 54.5 | 30 | 95 | 1.1 | 58 | 9.5 | 1.5 | 7 | 76.9 | 9.5 | 10.9 | 5 | 24.8 | 11.7 | inhibition [21]: 12.6%; inhibition [22]: 12.5%; inhibition [23]: 59.5% |
